From publication PMC6801739, “Antitumor Activity of a Novel Tyrosine Kinase Inhibitor AIU2001 Due to Abrogation of the DNA Damage Repair in Non-Small Cell Lung Cancer Cells” (International Journal of Molecular Sciences, 2019)

Columns and labels:
FLT3 = molecular target: T1, FLT3 (Homo sapiens, UniProt P36888); assay: Kinase profiling at 10 μM (Eurofins); assay type: biochemical; settings: read-out: Inhibitory activity
T1 construct: purchased Eurofins Pharma Discovery (KinaseProfiler); IC50 values by Reaction Biology Corp

EGFR(T790M,L858R) = molecular target: T2, EGFR(T790M,L858R) (Homo sapiens, UniProt P00533, L858R/T790M); assay: Kinase profiling at 10 μM (Eurofins); assay type: biochemical; settings: read-out: Inhibitory activity
T2 construct: purchased Eurofins Pharma Discovery (KinaseProfiler); IC50 values by Reaction Biology Corp

BEAS2B cells = assay: MTT cell viability assay; assay type: cell-based, human; settings: BEAS2B normal bronchial epithelial cells, five days
Experimental: Cell viability was assessed using the MTT colorimetric assay. Cells (1 × 10^3 cells/well) were seeded into 96-well plates and treated with the various concentrations of each compound or combination of two compounds. After five days of treatment, 10 μL MTT (0.5 mg/mL) was added, and further incubated for 3 h. After removal of the supernatant, the resultant pellet was dissolved in DMSO. The absorbance of the resultant formazan was measured at 540 nm using a plate reader (Multiskan EX; ThermoLabsystems, Waltham, MA, USA).

PDGFRα = molecular target: T3, PDGFRα (Homo sapiens, UniProt P16234); assay: Kinase profiling at 10 μM (Eurofins); assay type: biochemical; settings: read-out: Inhibitory activity
T3 construct: purchased Eurofins Pharma Discovery (KinaseProfiler); IC50 values by Reaction Biology Corp

AMPKα1 = molecular target: T4, AMPKα1 (Homo sapiens, UniProt Q13131); assay: Kinase profiling at 10 μM (Eurofins); assay type: biochemical; settings: read-out: Inhibitory activity
T4 construct: purchased Eurofins Pharma Discovery (KinaseProfiler); IC50 values by Reaction Biology Corp

Met = molecular target: T5, Met (Homo sapiens, UniProt P08581); assay: Kinase profiling at 10 μM (Eurofins); assay type: biochemical; settings: read-out: Inhibitory activity
T5 construct: purchased Eurofins Pharma Discovery (KinaseProfiler); IC50 values by Reaction Biology Corp

ERBB2 = molecular target: T6, ERBB2 (Homo sapiens, UniProt P04626); assay: Kinase profiling at 10 μM (Eurofins); assay type: biochemical; settings: read-out: Inhibitory activity
T6 construct: purchased Eurofins Pharma Discovery (KinaseProfiler); IC50 values by Reaction Biology Corp

Abl = molecular target: T7, Abl (Homo sapiens, UniProt P00519); assay: Kinase profiling at 10 μM (Eurofins); assay type: biochemical; settings: read-out: Inhibitory activity
T7 construct: purchased Eurofins Pharma Discovery (KinaseProfiler); IC50 values by Reaction Biology Corp

IGF-1R = molecular target: T8, IGF-1R (Homo sapiens, UniProt P08069); assay: Kinase profiling at 10 μM (Eurofins); assay type: biochemical; settings: read-out: Inhibitory activity
T8 construct: purchased Eurofins Pharma Discovery (KinaseProfiler); IC50 values by Reaction Biology Corp

c-KIT (V560G) = molecular target: T9, c-KIT (V560G) (Homo sapiens, UniProt P10721, V560G); assay: Kinase profiling at 10 μM (Eurofins); assay type: biochemical; settings: read-out: Inhibitory activity
T9 construct: purchased Eurofins Pharma Discovery (KinaseProfiler); IC50 values by Reaction Biology Corp

c-KIT (D816H) = molecular target: T10, c-KIT (D816H) (Homo sapiens, UniProt P10721, D816H); assay: Kinase profiling at 10 μM (Eurofins); assay type: biochemical; settings: read-out: Inhibitory activity
T10 construct: purchased Eurofins Pharma Discovery (KinaseProfiler); IC50 values by Reaction Biology Corp

MV4-11 cells = assay: Immunoblot of phospho-STAT5; assay type: cell-based, human; settings: 1 h
Experimental: (§1) Cell lysates were prepared by extracting proteins with TNN buffer (40 mM Tris-Cl pH 8.0, 0.2% NP-40, 120 mM NaCl) or radioimmunoprecipitation assay (RIPA) lysis buffer (Millipore, Billerica MA, USA) supplemented with a protease inhibitor cocktail (Thermo Fisher Scientific, Rockford, IL, USA). Equal amounts of proteins were separated using SDS-PAGE on 8–13% gels, and transferred to nitrocellulose membranes (Bio-Rad, Hercules, CA, USA). The membranes were blocked with 5% skim milk in Tris-buffered saline-Tween 20 (TBST) (150 mM NaCl, 10 mM Tris, 0.2% Tween20), followed by overnight incubation with primary antibodies at 4 °C. The blots were developed using peroxidase-conjugated secondary antibody and the immunoreactive proteins were visualized using enhanced chemiluminescence (ECL) reagents, according to the manufacturer’s recommendations (Amersham, GE Healthcare, Buckingamshire, UK). The protein bands were visualized using a digital imaging system (ImageQuant LAS 4000 mini; GE Healthcare, UK). The protein levels were analyzed using Image J software (National Institutes of Health, Bethesda, MD, USA). Experiments were repeated at least thrice.
(§2) Supplementary Figure 3. AIU2001 inhibited downstream effector STAT5 of FLT3 signaling in
(§3) FLT3(ITD)-AML cells. […]
(§4) AIU2001 for 1h. Cell lysates were prepared and analyzed using immunoblotting for detecting […]

Molm-13 cells = assay: Immunoblot of phospho-STAT5; assay type: cell-based, human; settings: 1 h
Experimental: as §1, §2, §3, §4

H1299 cells = assay: Clonogenic survival assay with γ-radiation; assay type: cell-based, human
Experimental: (§5) Cells were seeded on 60-mm culture dishes at various densities and then treated with DMSO or 2 μM AIU2001. After 2 h, the cells were treated with the indicated doses of ^137Cs γ-radiation. After 10 days, the colonies were fixed and stained with 1.5% methylene blue (Sigma Aldrich) in methanol solution. Colonies containing > 50 cells were counted. The dose enhancement ratio (DER) was calculated as the dose (Gy) of radiation that yielded a surviving fraction of 0.1 for DMSO-treated cells divided by that dose for AIU2001-treated cells. The experiment was performed in triplicate.

A549 cells = assay: Clonogenic survival assay with γ-radiation; assay type: cell-based, human
Experimental: as §5

PIM-1 = molecular target: T11, PIM-1 (Homo sapiens, UniProt P11309); assay: Kinase profiling at 10 μM (Eurofins); assay type: biochemical; settings: read-out: Inhibitory activity
T11 construct: purchased Eurofins Pharma Discovery (KinaseProfiler); IC50 values by Reaction Biology Corp

SRC (1-530) = molecular target: T12, SRC (1-530) (Homo sapiens, UniProt P12931); assay: Kinase profiling at 10 μM (Eurofins); assay type: biochemical; settings: read-out: Inhibitory activity
T12 construct: purchased Eurofins Pharma Discovery (KinaseProfiler); IC50 values by Reaction Biology Corp

Aurora-A = molecular target: T13, Aurora-A (Homo sapiens, UniProt O14965); assay: Kinase profiling at 10 μM (Eurofins); assay type: biochemical; settings: read-out: Inhibitory activity
T13 construct: purchased Eurofins Pharma Discovery (KinaseProfiler); IC50 values by Reaction Biology Corp

CK1γ1 = molecular target: T14, CK1γ1 (Homo sapiens, UniProt Q9HCP0); assay: Kinase profiling at 10 μM (Eurofins); assay type: biochemical; settings: read-out: Inhibitory activity
T14 construct: purchased Eurofins Pharma Discovery (KinaseProfiler); IC50 values by Reaction Biology Corp

ERBB4 = molecular target: T15, ERBB4 (Homo sapiens, UniProt Q15303); assay: Kinase profiling at 10 μM (Eurofins); assay type: biochemical; settings: read-out: Inhibitory activity
T15 construct: purchased Eurofins Pharma Discovery (KinaseProfiler); IC50 values by Reaction Biology Corp

FAK = molecular target: T16, FAK (Homo sapiens, UniProt Q05397); assay: Kinase profiling at 10 μM (Eurofins); assay type: biochemical; settings: read-out: Inhibitory activity
T16 construct: purchased Eurofins Pharma Discovery (KinaseProfiler); IC50 values by Reaction Biology Corp

MEK1 = molecular target: T17, MEK1 (Homo sapiens, UniProt Q02750); assay: Kinase profiling at 10 μM (Eurofins); assay type: biochemical; settings: read-out: Inhibitory activity
T17 construct: purchased Eurofins Pharma Discovery (KinaseProfiler); IC50 values by Reaction Biology Corp

FLT3 (ITD) = FLT3 (ITD) (Homo sapiens, UniProt P36888, ITD); assay: In vitro kinase assay, IC50 (Reaction Biology Corp.); assay type: biochemical
FLT3(D835Y) = FLT3(D835Y) (Homo sapiens, UniProt P36888, D835Y); assay: as above; assay type: biochemical; set-up: purchased Reaction Biology Corp. (Malvern, PA, USA)
CDK1/cyclinB = molecular target: T18, CDK1/cyclinB (Homo sapiens, UniProt P06493); assay: Kinase profiling at 10 μM (Eurofins); assay type: biochemical; settings: read-out: Inhibitory activity
T18 construct: purchased Eurofins Pharma Discovery (KinaseProfiler); IC50 values by Reaction Biology Corp

c-KIT = molecular target: T19, c-KIT (Homo sapiens, UniProt P10721); assay: Kinase profiling at 10 μM (Eurofins); assay type: biochemical; settings: read-out: Inhibitory activity
T19 construct: purchased Eurofins Pharma Discovery (KinaseProfiler); IC50 values by Reaction Biology Corp

EPHB4 = molecular target: T20, EPHB4 (Homo sapiens, UniProt P54760); assay: Kinase profiling at 10 μM (Eurofins); assay type: biochemical; settings: read-out: Inhibitory activity
T20 construct: purchased Eurofins Pharma Discovery (KinaseProfiler); IC50 values by Reaction Biology Corp
T20 sequence (P54760 16-987): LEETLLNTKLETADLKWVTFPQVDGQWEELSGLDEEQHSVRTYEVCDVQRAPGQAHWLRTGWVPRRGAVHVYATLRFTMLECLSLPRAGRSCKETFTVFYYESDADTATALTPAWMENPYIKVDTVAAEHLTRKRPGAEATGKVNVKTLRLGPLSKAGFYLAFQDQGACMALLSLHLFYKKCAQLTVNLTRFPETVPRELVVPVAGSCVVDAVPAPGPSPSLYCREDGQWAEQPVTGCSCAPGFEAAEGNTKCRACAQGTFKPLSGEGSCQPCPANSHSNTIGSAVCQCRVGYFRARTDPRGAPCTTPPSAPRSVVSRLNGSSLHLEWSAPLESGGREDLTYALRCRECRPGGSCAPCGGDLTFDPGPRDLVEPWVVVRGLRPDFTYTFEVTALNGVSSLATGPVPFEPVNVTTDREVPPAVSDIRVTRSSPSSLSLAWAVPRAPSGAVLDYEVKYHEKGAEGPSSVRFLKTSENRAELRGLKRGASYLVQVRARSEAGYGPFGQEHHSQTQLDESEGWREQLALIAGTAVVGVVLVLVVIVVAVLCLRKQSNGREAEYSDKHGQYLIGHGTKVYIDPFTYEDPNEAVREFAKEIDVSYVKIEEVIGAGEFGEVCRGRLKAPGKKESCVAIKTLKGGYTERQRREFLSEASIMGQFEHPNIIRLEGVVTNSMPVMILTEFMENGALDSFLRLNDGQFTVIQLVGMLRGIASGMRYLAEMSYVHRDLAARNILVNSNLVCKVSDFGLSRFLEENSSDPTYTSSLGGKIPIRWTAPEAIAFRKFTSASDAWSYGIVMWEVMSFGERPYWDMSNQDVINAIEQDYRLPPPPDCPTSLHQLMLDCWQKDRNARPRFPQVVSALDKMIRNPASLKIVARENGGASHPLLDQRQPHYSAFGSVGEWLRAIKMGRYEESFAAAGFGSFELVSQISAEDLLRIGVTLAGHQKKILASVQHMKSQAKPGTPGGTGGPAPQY

T19 sequence (P10721 26-976): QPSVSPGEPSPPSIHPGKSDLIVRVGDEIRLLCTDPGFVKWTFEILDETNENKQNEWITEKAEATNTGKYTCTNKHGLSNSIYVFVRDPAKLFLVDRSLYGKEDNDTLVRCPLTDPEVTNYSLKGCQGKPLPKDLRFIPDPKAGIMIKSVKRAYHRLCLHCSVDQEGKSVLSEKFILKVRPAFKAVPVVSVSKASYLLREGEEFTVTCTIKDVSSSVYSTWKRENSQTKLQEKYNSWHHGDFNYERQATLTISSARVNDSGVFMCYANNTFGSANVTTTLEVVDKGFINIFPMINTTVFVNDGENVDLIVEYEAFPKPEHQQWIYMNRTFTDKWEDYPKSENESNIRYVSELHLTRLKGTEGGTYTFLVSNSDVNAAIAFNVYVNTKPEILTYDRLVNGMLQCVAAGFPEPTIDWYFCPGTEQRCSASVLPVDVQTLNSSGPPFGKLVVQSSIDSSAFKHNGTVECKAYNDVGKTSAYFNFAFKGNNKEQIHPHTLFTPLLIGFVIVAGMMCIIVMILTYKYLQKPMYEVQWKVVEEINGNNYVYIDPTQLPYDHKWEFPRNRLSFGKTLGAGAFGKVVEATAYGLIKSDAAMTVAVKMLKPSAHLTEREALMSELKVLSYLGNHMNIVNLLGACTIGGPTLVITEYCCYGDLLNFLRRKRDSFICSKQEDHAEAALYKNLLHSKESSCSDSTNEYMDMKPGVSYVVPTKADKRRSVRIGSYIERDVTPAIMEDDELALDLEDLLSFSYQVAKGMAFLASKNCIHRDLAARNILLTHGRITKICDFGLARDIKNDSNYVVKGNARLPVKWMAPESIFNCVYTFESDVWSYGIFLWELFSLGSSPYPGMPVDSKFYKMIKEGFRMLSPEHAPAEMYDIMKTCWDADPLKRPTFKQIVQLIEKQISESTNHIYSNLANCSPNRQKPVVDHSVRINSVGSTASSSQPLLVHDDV
T2 sequence (P00533 25-1210 T790M/L858R): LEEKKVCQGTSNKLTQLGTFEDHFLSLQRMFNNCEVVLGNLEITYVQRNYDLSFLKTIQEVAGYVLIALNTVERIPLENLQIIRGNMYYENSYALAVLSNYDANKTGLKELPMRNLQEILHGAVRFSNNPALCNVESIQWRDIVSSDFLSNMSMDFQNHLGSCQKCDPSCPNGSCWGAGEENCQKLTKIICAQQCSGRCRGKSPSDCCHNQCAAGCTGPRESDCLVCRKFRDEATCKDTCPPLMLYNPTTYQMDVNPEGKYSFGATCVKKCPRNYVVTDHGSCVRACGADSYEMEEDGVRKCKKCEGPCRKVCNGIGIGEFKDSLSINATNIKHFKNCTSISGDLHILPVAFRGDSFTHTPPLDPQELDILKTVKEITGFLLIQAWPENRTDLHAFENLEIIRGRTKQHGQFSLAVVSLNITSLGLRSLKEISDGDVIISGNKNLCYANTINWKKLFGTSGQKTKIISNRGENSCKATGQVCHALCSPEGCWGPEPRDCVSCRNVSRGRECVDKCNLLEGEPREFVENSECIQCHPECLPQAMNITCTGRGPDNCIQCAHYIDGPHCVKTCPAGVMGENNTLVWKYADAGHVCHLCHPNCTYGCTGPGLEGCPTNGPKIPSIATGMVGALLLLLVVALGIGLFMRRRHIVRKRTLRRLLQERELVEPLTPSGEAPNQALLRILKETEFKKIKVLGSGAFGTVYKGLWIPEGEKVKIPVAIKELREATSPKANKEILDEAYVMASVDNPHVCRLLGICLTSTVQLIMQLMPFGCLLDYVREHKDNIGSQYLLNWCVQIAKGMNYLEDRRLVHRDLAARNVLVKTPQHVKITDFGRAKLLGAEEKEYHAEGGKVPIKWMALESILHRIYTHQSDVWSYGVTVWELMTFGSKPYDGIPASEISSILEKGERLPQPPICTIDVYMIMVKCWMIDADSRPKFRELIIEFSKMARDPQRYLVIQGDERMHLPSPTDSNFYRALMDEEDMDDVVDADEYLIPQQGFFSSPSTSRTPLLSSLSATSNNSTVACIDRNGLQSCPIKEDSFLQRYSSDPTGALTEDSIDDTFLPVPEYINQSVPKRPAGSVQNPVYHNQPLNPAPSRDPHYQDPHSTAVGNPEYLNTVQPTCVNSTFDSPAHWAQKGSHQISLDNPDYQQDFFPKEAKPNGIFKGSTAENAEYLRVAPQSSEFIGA
T17 sequence (Q02750 whole entry): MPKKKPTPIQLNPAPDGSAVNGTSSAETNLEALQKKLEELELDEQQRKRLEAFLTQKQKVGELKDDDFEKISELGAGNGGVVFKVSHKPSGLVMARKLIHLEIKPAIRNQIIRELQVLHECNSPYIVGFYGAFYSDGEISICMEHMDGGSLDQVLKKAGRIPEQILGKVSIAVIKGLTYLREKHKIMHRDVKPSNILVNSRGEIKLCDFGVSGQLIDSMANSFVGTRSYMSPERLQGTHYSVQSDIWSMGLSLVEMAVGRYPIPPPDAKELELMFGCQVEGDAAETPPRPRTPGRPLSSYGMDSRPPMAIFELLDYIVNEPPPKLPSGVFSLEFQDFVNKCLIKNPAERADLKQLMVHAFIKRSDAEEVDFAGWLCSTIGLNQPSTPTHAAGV
T5 sequence (P08581 25-1390): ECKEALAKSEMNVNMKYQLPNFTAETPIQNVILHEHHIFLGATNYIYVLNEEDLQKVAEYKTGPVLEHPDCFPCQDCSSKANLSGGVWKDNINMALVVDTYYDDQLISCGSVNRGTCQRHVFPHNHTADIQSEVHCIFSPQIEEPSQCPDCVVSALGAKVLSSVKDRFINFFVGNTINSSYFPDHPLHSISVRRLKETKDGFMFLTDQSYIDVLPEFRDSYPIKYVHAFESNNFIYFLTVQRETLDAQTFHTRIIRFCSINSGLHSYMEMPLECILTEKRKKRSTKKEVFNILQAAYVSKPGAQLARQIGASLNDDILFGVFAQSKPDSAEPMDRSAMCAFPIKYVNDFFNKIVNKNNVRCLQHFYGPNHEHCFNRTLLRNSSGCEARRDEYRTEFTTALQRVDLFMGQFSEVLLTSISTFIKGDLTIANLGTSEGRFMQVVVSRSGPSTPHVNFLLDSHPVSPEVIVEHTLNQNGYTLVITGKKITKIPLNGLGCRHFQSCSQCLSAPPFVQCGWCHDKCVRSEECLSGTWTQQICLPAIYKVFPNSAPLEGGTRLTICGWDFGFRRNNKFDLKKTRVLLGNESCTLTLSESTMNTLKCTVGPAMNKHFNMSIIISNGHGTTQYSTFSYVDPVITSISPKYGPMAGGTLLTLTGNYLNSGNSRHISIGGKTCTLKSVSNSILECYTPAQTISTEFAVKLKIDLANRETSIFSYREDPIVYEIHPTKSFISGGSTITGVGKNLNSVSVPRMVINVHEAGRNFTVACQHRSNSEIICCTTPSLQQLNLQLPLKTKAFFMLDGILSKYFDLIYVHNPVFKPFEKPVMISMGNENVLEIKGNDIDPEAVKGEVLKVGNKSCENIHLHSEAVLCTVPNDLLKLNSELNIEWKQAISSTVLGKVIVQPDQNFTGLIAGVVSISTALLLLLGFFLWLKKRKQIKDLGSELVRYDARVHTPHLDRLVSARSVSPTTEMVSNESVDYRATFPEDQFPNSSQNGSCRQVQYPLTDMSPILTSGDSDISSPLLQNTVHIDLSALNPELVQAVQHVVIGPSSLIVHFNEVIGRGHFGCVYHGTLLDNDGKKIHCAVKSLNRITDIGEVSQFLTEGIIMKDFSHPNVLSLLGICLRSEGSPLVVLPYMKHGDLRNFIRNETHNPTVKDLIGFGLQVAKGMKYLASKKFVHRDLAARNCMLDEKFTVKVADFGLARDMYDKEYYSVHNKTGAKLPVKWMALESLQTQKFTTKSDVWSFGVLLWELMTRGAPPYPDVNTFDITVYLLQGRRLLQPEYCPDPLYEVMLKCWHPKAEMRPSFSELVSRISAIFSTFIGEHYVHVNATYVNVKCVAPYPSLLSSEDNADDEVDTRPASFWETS
T9 sequence (P10721 26-976 V560G): as the sequence (P10721 26-976) above, with V535G counted along it
T10 sequence (P10721 26-976 D816H): as the sequence (P10721 26-976) above, with D791H counted along it

## Brc1ccc(-c2cnc(Nc3cccc4ccccc34)o2)cc1 [AIU2001, 5-(4-bromophenyl)-N-(naphthalen-1-yl) oxazol-2-amine]
FLT3
  inhibition at 10 µM: ≥ 75%
EGFR(T790M,L858R)
  inhibition at 10 µM: 4%
BEAS2B cells
  Growth inhibition: relatively less
PDGFRα
  inhibition at 10 µM: 48%
AMPKα1
  inhibition at 10 µM: 25%
Met
  inhibition at 10 µM: 1%
ERBB2
  inhibition at 10 µM: 0%
Abl
  inhibition at 10 µM: 51%
IGF-1R
  inhibition at 10 µM: 0%
c-KIT (V560G)
  inhibition at 10 µM: ≥ 75%
c-KIT (D816H)
  inhibition at 10 µM: 48%
MV4-11 cells
  Phosphorylated STAT5: dose-dependently inhibited phosphorylated STAT5
Molm-13 cells
  Phosphorylated STAT5: dose-dependently inhibited phosphorylated STAT5
H1299 cells; 2 μM, 2 h before IR, 10 days
  Dose enhancement ratio (DER) at surviving fraction of 0.1 over DMSO-treated cells: 1.15
H1299 cells; clonogenic survival
  Radiosensitivity: radiosensitized
A549 cells; 2 μM, 2 h before IR, 10 days
  Dose enhancement ratio (DER) at surviving fraction of 0.1 over DMSO-treated cells: 1.33
A549 cells; clonogenic survival
  Radiosensitivity: radiosensitized
PIM-1
  inhibition at 10 µM: 37%
SRC (1-530)
  inhibition at 10 µM: 10%
Aurora-A
  inhibition at 10 µM: 28%
CK1γ1
  inhibition at 10 µM: 37%
ERBB4
  inhibition at 10 µM: 1%
FAK
  inhibition at 10 µM: 16%
MEK1
  inhibition at 10 µM: 0%
FLT3 (ITD)
  IC50: 63.2 nM
FLT3(D835Y)
  IC50: 108 nM
CDK1/cyclinB
  inhibition at 10 µM: 38%
c-KIT
  inhibition at 10 µM: ≥ 75%
EPHB4
  inhibition at 10 µM: 10%
